# Patent US10071998B2, “Iminothiadiazine dioxides bearing an amine-linked substituent as BACE inhibitors, compositions, and their use” (Merck Sharp & Dohme Corp., priority 2015, dated 2018)
# Read-outs that look alike come from different tables or passages of the source.
# Columns and labels:
# [1] = molecular target: Recombinant human soluble BACE-1 catalytic domain (Homo sapiens (Human), UniProt P56817); assay: BACE-1 Ki Assay (BACE-1 HTRF FRET Assay); format: biochemical
# Experimental: Assay 1: BACE-1 Ki Assay (BACE-1 HTRF FRET Assay)
# The compounds of the invention were assessed for their ability to inhibit BACE-1 using the following assay.
# The following reagents were used in this assay. Na^+-Acetate pH 5.0; 1% Brij-35; Glycerol; Dimethyl Sulfoxide (DMSO); Recombinant human soluble BACE-1 catalytic domain (>95% pure); APP Swedish mutant peptide substrate (QSY7-APP^swe-Eu): QSY7-EISEVNLDAEFC-Europium-amide.
# A homogeneous time-resolved FRET assay can be used to determine IC50 values for inhibitors of the soluble human BACE-1 catalytic domain. This assay monitors the increase of 620 nm fluorescence that resulted from BACE-1 cleavage of an APPswedish APP^swe mutant peptide FRET substrate (QSY7-EISEVNLDAEFC-Europium-amide). This substrate contains an N-terminal QSY7 moiety that serves as a quencher of the C-terminal Europium fluorophore (620 nm Em). In the absence of enzyme activity, 620 nm fluorescence is low in the assay and increased linearly over 3 hours in the presence of uninhibited BACE-1 enzyme. Inhibition of BACE-1 cleavage of the QSY7-APP^swe-Eu substrate by inhibitors is manifested as a suppression of 620 nm fluorescence.
# Varying concentrations of inhibitors at 3× the final desired concentration in a volume of 10 ul are preincubated with purified human BACE-1 catalytic domain (3 nM in 10 μl) for 30 minutes at 30° C. in reaction buffer containing 20 mM Na-Acetate pH 5.0, 10% glycerol, 0.1% Brij-35 and 7.5% DSMO. Reactions are initiated by addition of 10 μl of 600 nM QSY7-APP^swe-Eu substrate (200 nM final) to give a final reaction volume of 30 μl in a 384 well Nunc HTRF plate. The reactions are incubated at 30° C. for 1.5 hours. The 620 nm fluorescence is then read on a Rubystar HTRF plate reader (BMG Labtechnologies) using a […] delay followed by a 400 millisecond acquisition time window. Inhibitor IC50 values are derived from non-linear regression analysis of concentration response curves. Ki values are then calculated from IC50 values using the Cheng-Prusoff equation using a previously determined […] of 8 μM for the QSY7-APP^swe-Eu substrate at BACE-1. The example compounds of the invention were measured in this assay.
# [2] = molecular target: purified human autoBACE-2 (Homo sapiens (Human), UniProt Q9Y5Z0); assay: BACE-2 Assay (BACE-HTRF assay); format: biochemical; conditions: Table 1; Ki calculated from IC50 with Cheng-Prusoff equation; read-out: BACE2 Ki
# Sequence of purified human autoBACE-2 (Q9Y5Z0 63-473): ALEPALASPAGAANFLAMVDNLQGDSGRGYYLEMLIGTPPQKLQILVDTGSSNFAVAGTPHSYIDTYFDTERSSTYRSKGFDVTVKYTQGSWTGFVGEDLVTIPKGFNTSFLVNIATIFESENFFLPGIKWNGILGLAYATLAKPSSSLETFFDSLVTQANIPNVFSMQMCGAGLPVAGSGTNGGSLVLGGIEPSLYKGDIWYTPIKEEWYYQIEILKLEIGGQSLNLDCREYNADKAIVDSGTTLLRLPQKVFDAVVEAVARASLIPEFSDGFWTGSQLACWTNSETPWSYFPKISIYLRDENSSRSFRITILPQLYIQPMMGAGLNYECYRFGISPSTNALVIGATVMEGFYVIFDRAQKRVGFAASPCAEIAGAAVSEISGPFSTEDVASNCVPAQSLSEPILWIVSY
# Experimental: Inhibitor IC50s, at purified human autoBACE-2 are determined in a time-resolved endpoint proteolysis assay that measures hydrolysis of the QSY7-EISEVNLDAEFC-Eu-amide FRET peptide substrate (BACE-HTRF assay). BACE-mediated hydrolysis of this peptide results in an increase in relative fluorescence (RFU) at 620 nm after excitation with 320 nm light. Inhibitor compounds, prepared at 3× the desired final concentration in 1× BACE assay buffer (20 mM sodium acetate pH 5.0, 10% glycerol, 0.1% Brij-35) supplemented with 7.5% DMSO are pre-incubated with an equal volume of autoBACE-2 enzyme diluted in 1×BACE assay buffer (final enzyme concentration 1 nM) in black 384-well NUNC plates for 30 minutes at 30° C. The assay is initiated by addition of an equal volume of the QSY7-EISEVNLDAEFC-Eu-amide substrate (200 nM final concentration, Km=8 μM […] for autoBACE-2) prepared in 1×BACE assay buffer supplemented with 7.5% DMSO and incubated for 90 minutes at 30° C. DMSO is present at 5% final concentration in the assay. Following laser excitation of sample wells at 320 nm, the fluorescence signal at 620 nm is collected for 400 ms following a 50 μs delay on a RUBYstar HTRF plate reader (BMG Labtechnologies). Raw RFU data is normalized to maximum (1.0 nM BACE/DMSO) and minimum (no enzyme/DMSO) RFU values. IC50 values are determined by nonlinear regression analysis (sigmoidal dose response, variable slope) of percent inhibition data with minimum and maximum values set to 0 and 100 percent respectively. Similar IC50s are obtained when using raw RFU data. The Ki values are calculated from the IC50 using the Cheng-Prusoff equation.
# [3] = Table 3, comparator compounds of WO2011044181, read-out: BACE-1 Ki Nm
# [4] = Table 1, Ki calculated from IC50 with Cheng-Prusoff equation, read-out: BACE1 Ki
# Sequence of Recombinant human soluble BACE-1 catalytic domain (P56817 75-416): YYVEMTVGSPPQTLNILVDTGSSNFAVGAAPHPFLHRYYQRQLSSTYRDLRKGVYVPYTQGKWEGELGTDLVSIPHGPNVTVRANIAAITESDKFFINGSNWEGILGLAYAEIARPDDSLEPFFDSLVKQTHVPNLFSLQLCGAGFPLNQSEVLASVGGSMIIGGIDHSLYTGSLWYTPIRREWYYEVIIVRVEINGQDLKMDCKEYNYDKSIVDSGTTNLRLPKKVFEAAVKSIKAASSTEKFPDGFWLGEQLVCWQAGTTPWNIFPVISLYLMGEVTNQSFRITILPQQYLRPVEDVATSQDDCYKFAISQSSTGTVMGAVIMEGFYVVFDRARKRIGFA
"Ki [1, 3] [nM]","Ki [1, 4] [nM]",Ki [2] [nM],SMILES
42,,,"CN1C(=N)N[C@](C)(c2cc(Nc3cccc4c3OC(F)(F)O4)ccc2F)CS1(=O)=O [103 (Scheme 18), reference compound]"
69,,,"COc1ccccc1Nc1cccc([C@]2(C)CS(=O)(=O)N(C)C(=N)N2)c1 [103a (Table IXa), reference compound]"
514,,,"CN1C(=N)N[C@](C)(c2cccc(Nc3ccccc3C#N)n2)CS1(=O)=O [103b (Table IXa), reference compound]"
3760,,,"COc1ccccc1Nc1cccc([C@]2(C)CS(=O)(=O)N(C)C(=N)N2)n1 [162 (Scheme 40), reference compound]"
4700,,,"CN1C(=N)N[C@](C)(c2cccc(Nc3cccc4c3OC(F)(F)O4)n2)CS1(=O)=O [163 (Table XXI), reference compound]"
508,,,"CN1C(=N)N[C@](C)(c2cccc(Nc3ncccc3C#N)n2)CS1(=O)=O [164 (Table XXI), reference compound]"
2590,,,"COc1cccnc1Nc1cccc([C@]2(C)CS(=O)(=O)N(C)C(=N)N2)n1 [165 (as listed on page 224), reference compound]"
41,,,"COc1cccnc1Nc1cc([C@]2(C)CS(=O)(=O)N(C)C(=N)N2)ccn1 [166 (Table XXI), reference compound]"
344,,,"COc1ccccc1Nc1cc([C@]2(C)CS(=O)(=O)N(C)C(=N)N2)ccn1 [167 (Table XXI), reference compound]"
,1.2,0.22,"CN1C(=N)N[C@](C)(c2cc(Nc3nccc4cc(Cl)cnc34)ccc2F)CS1(=O)=O [Example 1, 3-chloro-N-{4-fluoro-3-[(5R)-3-imino-2,5-dimethyl-1,1-dioxido-1,2,4-thiadiazinan-5-yl]phenyl}-1,7-naphthyridin-8-amine]"
,1.5,0.38,"CN1C(=N)N[C@](C)(c2cc(Nc3nccc4cc(Br)cnc34)ccc2F)CS1(=O)=O [Example 2, 3-bromo-N-{4-fluoro-3-[(5R)-3-imino-2,5-dimethyl-1,1-dioxido-1,2,4-thiadiazinan-5-yl]phenyl}-1,7-naphthyridin-8-amine]"
,2.8,0.81,"CN1C(=N)N[C@](C)(c2cc(Nc3ncnc4cc(Br)cnc34)ccc2F)CS1(=O)=O [Example 3, 7-bromo-N-{4-fluoro-3-[(5R)-3-imino-2,5-dimethyl-1,1-dioxido-1,2,4-thiadiazinan-5-yl]phenyl}pyrido[3,2-d]pyrimidin-4-amine]"
,16.2,4.5,"COc1cnc2c(Nc3cc([C@]4(C)CS(=O)(=O)N(C)C(=N)N4)c(F)cn3)nccc2c1 [Example 5, N-{5-fluoro-4-[(5R)-3-imino-2,5-dimethyl-1,1-dioxido-1,2,4-thiadiazinan-5-yl]pyridin-2-yl}-3-methoxy-1,7-naphthyridin-8-amine]"
,10.6,15.4,"COc1cnc2c(Nc3ccc(F)c([C@]4(C)CS(=O)(=O)N(C)C(=N)N4)c3)ncnc2n1 [Example 13, N-{4-fluoro-3-[(5R)-3-imino-2,5-dimethyl-1,1-dioxido-1,2,4-thiadiazinan-5-yl]phenyl}-7-methoxypteridin-4-amine]"
,41.2,124,"CN1C(=N)N[C@](C)(c2cc(N[C@@H]3CCc4ncc(Cl)cc43)ccc2F)CS1(=O)=O [Example 15, (R)-5-(5-(((R)-3-chloro-6,7-dihydro-5H-cyc1openta[b]pyridin-5-yl)amino)-2-fluorophenyl)-3-imino-2,5-dimethyl-1,2,4-thiadiazinane 1,1-dioxide]"
,57.3,242,"CN1C(=N)N[C@](C)(c2cc(N[C@@H]3CCc4ncc(C(F)(F)F)cc43)ccc2F)CS1(=O)=O [Example 16, (R)-5-(2-fluoro-5-(((R)-3-(trifluoromethyl)-6,7-dihydro-5H-cyclopenta[b]pyridin-5-yl)amino)phenyl)-3-imino-2,5-dimethyl-1,2,4-thiadiazinane 1,1-dioxide]"
,10.2,16.6,"CN1C(=N)N[C@](C)(c2cc(N[C@H]3CCc4cc(Cl)ccc43)ccc2F)CS1(=O)=O [Example 17, (R)-5-(5-(((S)-5-chloro-2,3-dihydro-1H-inden-1-yl)amino)-2-fluorophenyl)-3-imino-2,5-dimethyl-1,2,4-thiadiazinane 1,1-dioxide]"
,3.1,22.3,"CN1C(=N)N[C@](C)(c2cc(N[C@H]3CCc4cc(C#N)cnc43)ccc2F)CS1(=O)=O [Example 18, (S)-7-((4-fluoro-3-((R)-3-imino-2,5-dimethyl-1,1-dioxido-1,2,4-thiadiazinan-5-yl)phenyl)amino)-6,7-dihydro-5H-cyclopenta[b]pyridine-3-carbonitrile]"
,81,42.6,"CN1C(=N)N[C@](C)(c2cc(N[C@@H]3CCc4cc(C#N)cnc43)ccc2F)CS1(=O)=O [Example 19, (R)-7-((4-fluoro-3-((R)-3-imino-2,5-dimethyl-1,1-dioxido-1,2,4-thiadiazinan-5-yl)phenyl)amino)-6,7-dihydro-5H-cyclopenta[b]pyridine-3-carbonitrile]"
,128,43.1,"CN1C(=N)N[C@](C)(c2cc(N[C@H]3CCCc4cc(Br)cnc43)ccc2F)CS1(=O)=O [Example 20, (R)-5-(5-(((S)-3-bromo-5,6,7,8-tetrahydroquinolin-8-yl)amino)-2-fluorophenyl)-3-imino-2,5-dimethyl-1,2,4-thiadiazinane 1,1-dioxide]"
